Earlier results, collected in patent publication US20040213859A1, “Organic nutrient for hair loss treatment” (priority 1999, published 2004).

Key:
[1] = biological target: T1, type II 5-alpha-reductase (Homo sapiens, UniProt P31213); settings: by inhibiting conversion of testosterone to DHT
T1 construct: host or cells: scalp (in vivo, treated individuals)
T1 sequence (P31213 1-254): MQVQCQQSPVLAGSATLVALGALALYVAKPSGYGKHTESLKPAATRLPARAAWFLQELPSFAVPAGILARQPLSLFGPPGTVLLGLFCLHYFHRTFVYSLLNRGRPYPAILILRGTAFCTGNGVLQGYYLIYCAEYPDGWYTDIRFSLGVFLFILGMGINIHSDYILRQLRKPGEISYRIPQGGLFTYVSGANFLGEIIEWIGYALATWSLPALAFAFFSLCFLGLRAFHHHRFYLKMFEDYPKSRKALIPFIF

[2] = tested on: adrogenetic alopecia; settings: oral administration

scalp DHT (dihydrotestosterone) [1]: effective in decreasing scalp DHT
Structure (SMILES): CC(C)(C)NC(=O)[C@H]1CC[C@H]2[C@@H]3CC[C@H]4NC(=O)C=C[C@]4(C)[C@H]3CC[C@]12C [Finisteride]
hair loss, hair growth and appearance of hair [2]: slowed hair loss, increased hair growth and improved the appearance of hair
